# Laboratory results reported in PubChem BioAssay AID1259407 (Chemical Carcinogenesis Research Information System (CCRIS), 2018).
# Calls of active or inactive are those of the source. The rule behind the calls is not given here.
# System: CCRIS mutagenicity, Ames/micronucleus/aberration tests
# Experiment: CCRIS mutagenicity studies
# [1] = Test System: AMES SALMONELLA TYPHIMURIUM, Strain/Indicator: TA97, Metabolic Activation: HAMSTER, LIVER, S-9, AROCLOR 1254 (10%), Method: PREINCUBATION
# [2] = Test System: AMES SALMONELLA TYPHIMURIUM, Strain/Indicator: TA97, Metabolic Activation: NONE, Method: PREINCUBATION
# [3] = Test System: AMES SALMONELLA TYPHIMURIUM, Strain/Indicator: TA97, Metabolic Activation: RAT, LIVER, S-9, AROCLOR 1254 (10%), Method: PREINCUBATION
# [4] = Test System: AMES SALMONELLA TYPHIMURIUM, Strain/Indicator: TA98, Metabolic Activation: HAMSTER, LIVER, S-9, AROCLOR 1254 (10%), Method: PREINCUBATION
# [5] = Test System: AMES SALMONELLA TYPHIMURIUM, Strain/Indicator: TA98, Metabolic Activation: NONE, Method: PREINCUBATION
# [6] = Test System: AMES SALMONELLA TYPHIMURIUM, Strain/Indicator: TA98, Metabolic Activation: RAT, LIVER, S-9, AROCLOR 1254 (10%), Method: PREINCUBATION
# [7] = Test System: AMES SALMONELLA TYPHIMURIUM, Strain/Indicator: TA100, Metabolic Activation: HAMSTER, LIVER, S-9, AROCLOR 1254 (10%), Method: PREINCUBATION
# [8] = Test System: AMES SALMONELLA TYPHIMURIUM, Strain/Indicator: TA100, Metabolic Activation: NONE, Method: PREINCUBATION
# [9] = Test System: AMES SALMONELLA TYPHIMURIUM, Strain/Indicator: TA100, Metabolic Activation: RAT, LIVER, S-9, AROCLOR 1254 (10%), Method: PREINCUBATION
# [10] = Test System: AMES SALMONELLA TYPHIMURIUM, Strain/Indicator: TA1535, Metabolic Activation: HAMSTER, LIVER, S-9, AROCLOR 1254 (10%), Method: PREINCUBATION
# [11] = Test System: AMES SALMONELLA TYPHIMURIUM, Strain/Indicator: TA1535, Metabolic Activation: NONE, Method: PREINCUBATION
# [12] = Test System: AMES SALMONELLA TYPHIMURIUM, Strain/Indicator: TA1535, Metabolic Activation: RAT, LIVER, S-9, AROCLOR 1254 (10%), Method: PREINCUBATION
# [13] = Test System: AMES SALMONELLA TYPHIMURIUM, Strain/Indicator: TA100, Metabolic Activation: NONE, Method: STANDARD PLATE
# [14] = Test System: AMES SALMONELLA TYPHIMURIUM, Strain/Indicator: TA98, Metabolic Activation: NONE, Method: STANDARD PLATE
# [15] = Test System: AMES SALMONELLA TYPHIMURIUM, Strain/Indicator: TA100, Metabolic Activation: RAT, LIVER, S-9, AROCLOR 1254, Method: STANDARD PLATE
# [16] = Test System: AMES SALMONELLA TYPHIMURIUM, Strain/Indicator: TA1535, Metabolic Activation: NONE, Method: STANDARD PLATE
# [17] = Test System: AMES SALMONELLA TYPHIMURIUM, Strain/Indicator: TA1535, Metabolic Activation: RAT, LIVER, S-9, AROCLOR 1254, Method: STANDARD PLATE
# [18] = Test System: AMES SALMONELLA TYPHIMURIUM, Strain/Indicator: TA1537, Metabolic Activation: NONE, Method: STANDARD PLATE
smiles,measurement,setting,value
OCCCCl,mutagenic call,[1],inactive; negative
same,mutagenic call,[2],inactive; negative
same,mutagenic call,[3],inactive; negative
same,mutagenic call,[4],inactive; negative
same,mutagenic call,[5],inactive; negative
same,mutagenic call,[6],inactive; negative
same,mutagenic call,[7],inactive; negative
same,mutagenic call,[8],inactive; negative
same,mutagenic call,[9],inactive; negative
same,mutagenic call,[10],active; positive
same,mutagenic call,[11],inactive; negative
same,mutagenic call,[12],active; positive
CC(C)NCC(O)c1cc(O)cc(O)c1 (configuration not stated),mutagenic call,"End Point: MORPHOLOGICAL TRANSFORMATION, Test System: SYRIAN HAMSTER EMBRYO CELLS (SHE), Metabolic Activation: NONE",inactive; negative
OC1c2cccnc2C2OC2C1O (configuration not stated),mutagenic call,[13],inactive; negative
same,mutagenic call,"Test System: AMES SALMONELLA TYPHIMURIUM, Strain/Indicator: TA100, Metabolic Activation: RAT, LIVER, S-9, AROCLOR 1254 (10 OR 20%), Method: STANDARD PLATE",inactive; negative
CCC1NC(=O)c2cc(S(N)(=O)=O)c(Cl)cc2N1 (configuration not stated),mutagenic call,[1],inactive; negative
same,mutagenic call,"Test System: AMES SALMONELLA TYPHIMURIUM, Strain/Indicator: TA97, Metabolic Activation: HAMSTER, LIVER, S-9, AROCLOR 1254 (30%), Method: PREINCUBATION",inactive; negative
same,mutagenic call,[2],inactive; negative
same,mutagenic call,[3],inactive; negative
same,mutagenic call,"Test System: AMES SALMONELLA TYPHIMURIUM, Strain/Indicator: TA97, Metabolic Activation: RAT, LIVER, S-9, AROCLOR 1254 (30%), Method: PREINCUBATION",inactive; negative
same,mutagenic call,"Test System: AMES SALMONELLA TYPHIMURIUM, Strain/Indicator: TA98, Metabolic Activation: HAMSTER, LIVER, S-9, AROCLOR 1254 (10 OR 30%), Method: PREINCUBATION",inactive; negative
same,mutagenic call,[5],inactive; negative
same,mutagenic call,"Test System: AMES SALMONELLA TYPHIMURIUM, Strain/Indicator: TA98, Metabolic Activation: RAT, LIVER, S-9, AROCLOR 1254 (10 OR 30%), Method: PREINCUBATION",inactive; negative
same,mutagenic call,"Test System: AMES SALMONELLA TYPHIMURIUM, Strain/Indicator: TA100, Metabolic Activation: HAMSTER, LIVER, S-9, AROCLOR 1254 (5 OR 10%), Method: PREINCUBATION",inactive; negative
same,mutagenic call,"Test System: AMES SALMONELLA TYPHIMURIUM, Strain/Indicator: TA100, Metabolic Activation: HAMSTER, LIVER, S-9, AROCLOR 1254 (30%), Method: PREINCUBATION",inactive; negative
same,mutagenic call,[8],inactive; negative
same,mutagenic call,"Test System: AMES SALMONELLA TYPHIMURIUM, Strain/Indicator: TA100, Metabolic Activation: RAT, LIVER, S-9, AROCLOR 1254 (5 OR 10%), Method: PREINCUBATION",inactive; negative
same,mutagenic call,"Test System: AMES SALMONELLA TYPHIMURIUM, Strain/Indicator: TA100, Metabolic Activation: RAT, LIVER, S-9, AROCLOR 1254 (30%), Method: PREINCUBATION",inactive; negative
same,mutagenic call,"Test System: AMES SALMONELLA TYPHIMURIUM, Strain/Indicator: TA1535, Metabolic Activation: HAMSTER, LIVER, S-9, AROCLOR 1254 (10 OR 30%), Method: PREINCUBATION",inactive; negative
same,mutagenic call,[11],inactive; negative
same,mutagenic call,"Test System: AMES SALMONELLA TYPHIMURIUM, Strain/Indicator: TA1535, Metabolic Activation: RAT, LIVER, S-9, AROCLOR 1254 (10 OR 30%), Method: PREINCUBATION",inactive; negative
CNCCC=C1c2ccccc2CCc2ccccc21,mutagenic call,[14],inactive; negative
same,mutagenic call,"Test System: AMES SALMONELLA TYPHIMURIUM, Strain/Indicator: TA98, Metabolic Activation: RAT, LIVER, S-9, AROCLOR 1254, Method: STANDARD PLATE",inactive; negative
same,mutagenic call,[13],inactive; negative
same,mutagenic call,[15],inactive; negative
same,mutagenic call,[16],inactive; negative
same,mutagenic call,[17],inactive; negative
same,mutagenic call,[18],inactive; negative
same,mutagenic call,"Test System: AMES SALMONELLA TYPHIMURIUM, Strain/Indicator: TA1537, Metabolic Activation: RAT, LIVER, S-9, AROCLOR 1254, Method: STANDARD PLATE",inactive; negative
O=C(O)C1OC1C(=O)O (configuration not stated),mutagenic call,[13],inactive; negative
same,mutagenic call,[15],inactive; negative
same,mutagenic call,[16],inactive; negative
same,mutagenic call,[17],inactive; negative
same,mutagenic call,"Test System: UDS RAT HEPATOCYTES, Strain/Indicator: THY INCORP, Metabolic Activation: NONE",inactive; negative
CN(N=O)C(=O)c1c(N(C)C(=O)OC(C)(C)C)ncn1C,mutagenic call,[14],inactive; negative
same,mutagenic call,"Test System: AMES SALMONELLA TYPHIMURIUM, Strain/Indicator: TA98, Metabolic Activation: S-9, Method: STANDARD PLATE",inactive; negative
same,mutagenic call,[13],active; positive
same,mutagenic call,"Test System: AMES SALMONELLA TYPHIMURIUM, Strain/Indicator: TA100, Metabolic Activation: S-9, Method: STANDARD PLATE",active; positive
same,mutagenic call,"Test System: AMES SALMONELLA TYPHIMURIUM, Strain/Indicator: TA102, Metabolic Activation: NONE, Method: STANDARD PLATE",inactive; negative
same,mutagenic call,"Test System: AMES SALMONELLA TYPHIMURIUM, Strain/Indicator: TA102, Metabolic Activation: S-9, Method: STANDARD PLATE",active; positive
same,mutagenic call,[16],active; positive
same,mutagenic call,"Test System: AMES SALMONELLA TYPHIMURIUM, Strain/Indicator: TA1535, Metabolic Activation: S-9, Method: STANDARD PLATE",active; positive
same,mutagenic call,[18],inactive; negative
same,mutagenic call,"Test System: AMES SALMONELLA TYPHIMURIUM, Strain/Indicator: TA1537, Metabolic Activation: S-9, Method: STANDARD PLATE",inactive; negative
OCc1ccc(Cl)cc1,mutagenic call,[13],inactive; negative
CCNc1cc(O)ccc1C,mutagenic call,[1],inactive; negative
same,mutagenic call,[2],inactive; negative
same,mutagenic call,[3],inactive; negative
same,mutagenic call,[4],active; positive
same,mutagenic call,[5],inactive; negative
same,mutagenic call,[6],active; positive
same,mutagenic call,[7],active; positive
same,mutagenic call,[8],inactive; negative
same,mutagenic call,[9],inactive; negative
same,mutagenic call,[10],inactive; negative
same,mutagenic call,[11],inactive; negative
same,mutagenic call,[12],inactive; negative
